Measurements reported in US20220340665A1, “INHIBITOR AGAINST EXPRESSION OF IMMUNE CHECKPOINT MOLECULE” (RENASCIENCE INC., priority 2019, published 2022).
“Also recorded” adds a separate entry of the source.

Tests used:
[1] = tested on: regulatory T cells (Treg); experiment: Regulatory T cells in MC38 tumor mass by flow cytometry (Experimental Example 14); format: in vivo, mice (C57BL6); conditions: oral administration for one week, vs vehicle
Procedure: 1) The untreated group and 3) the single-administration group of PAI-1 inhibitor (cancer-bearing mice) of Experimental Example 11, after tumor engraftment, were orally administered with physiological saline (vehicle) or the PAI-1 inhibitor for one week. Thereafter, the tumors were collected, the cells were stained with an anti-CD45 antibody, an anti-CD4 antibody, an anti-CD25 antibody, and an anti-foxp3 antibody, and the percentage of regulatory T cells (Treg) in the tumor mass was analyzed with a flow cytometer.

[2] = tested on: mouse leukemia cell line (32Dp210); experiment: PD-L1 expression level by flow cytometry in 32Dp210 cells (Experimental Examples 2 and 3); format: cell-based; conditions: inhibitor 50 μM with rPAI-1 40 nM, 2 days, listed as PAI-1 inhibitor
From the text: In order to analyze the characteristics of cancer cells highly expressing PAI-1, a rouse leukemia cell line (obtained by transfecting 32D cells, i.e., a myelomonocytic progenitor cell line, with BCR-ABL; referred to below as “32Dp210”) was transfected with PAI-1 to produce cells overexpressing PAI-1 (32d PAI-1 OE). Next, in order to analyze the expression level of PD-L1, which is an ICM, in the cells, the cells were stained with an anti-PD-L1 antibody (clone name: 10F.G92) labeled with Allophycocyanin (APC) as a fluorescent dye, and subjected to flow cytometry. As a comparative control experiment, a 32Dp210 cell line without transfection of PAI-1 (wild-type cells: 32D WT) was analyzed in the same manner for the PD-L1 expression level.
Specifically, artificially produced recombinant PAI-1 (referred to below as “rPAI-1”; 40 nM) or a culture supernatant of the cells overexpressing PAI-1 (32d PAI-1 OE) prepared in Experimental Example 1 (PAI-1 OE sup; containing a high concentration of PAI-1) was added to 5×10^4 cells of a mouse leukemia cell line (32Dp210), and the cells were cultured on a 96-well plate at 37° C., 5% CO2, for 2 days. Next, the PD-L1 expression level was determined by flow cytometry in the same manner as in Experimental Example 1. As a comparative control experiment, the PD-L1 expression level in untreated mouse leukemia cells (control) was measured in the same manner. […]

[3] = non-clinical and clinical studies (JP2020-088416A); cited from earlier work
[4] = tested on: human ovarian clear cell adenocarcinoma cell line (ES2); experiment: PD-L1 expression in tumor cells of ES2 tumor mass in nude mice (Experimental Example 9); format: in vivo; conditions: ES2 subcutaneous in nude mice; 10 mg/kg orally once daily, 7 days; vs vehicle
Procedure: The efficacy of the PAI-1 inhibitor against human cancer cells (ovarian cancer cells) was studied in vivo. Specifically, 5×10^5 cells of a human ovarian clear cell adenocarcinoma cell line (ES2) were transplanted subcutaneously in nude mice. One week later, engraftment of more than 5 mm of tumor mass in the major axis was confirmed. Subsequently, the PAI-1 inhibitor was orally administered once daily at 10 mg/kg for a total of 7 days. On the next day of the final administration, the tumor mass was collected from the mice, chopped with scissors, suspended in a 0.025% collagenase solution (FUJIFILM Wako Pure Chemical Corporation), and treated at 37° C. for 2 hours to break cell-cell bonds. The cells obtained by enzymatic treatment were stained with an anti-PD-L1 antibody (clone name: 10F.G92) labelled with Allophycocyanin (APC), and the PD-L1 expression level in the tumor cells was determined with a flow cytometer. As a comparative control experiment, cells were collected also from the tumor mass in the same manner in terms of a mouse group to which only physiological saline (vehicle) was administered instead of the PAI-1 inhibitor, and the PD-L1 expression level in the tumor cells was determined with a flow cytometer.

CD8+ T cells = experiment: Cytotoxic T cells in MC38 tumor mass by flow cytometry (Experimental Example 16); format: in vivo, mice (C57BL6); conditions: oral administration for one week, vs vehicle
From the text: 1) The untreated group and 3) the single-administration group of PAI-1 inhibitor (cancer-bearing mice) of Experimental Example 11, after tumor engraftment, were orally administered with physiological saline (vehicle) or the PAI-1 inhibitor for one week. Thereafter, the tumor was collected, the T cells were stained with an anti-CD45 antibody, an anti-CD3 antibody, an anti-CD4 antibody, an anti-CD8 antibody, and an anti-perforin antibody, and the percentage of cytotoxic T cells in the tumor mass was determined with a flow cytometer.

M2 macrophages = experiment: Macrophages and M2 macrophages in MC38 tumor mass by flow cytometry (Experimental Example 13); format: in vivo, mice (C57BL6); conditions: oral administration for one week, vs vehicle
Procedure: 1) The untreated group and 3) the single-administration group of PAI-1 inhibitor (cancer-bearing mice) of Experimental Example 11, after tumor engraftment, were orally administered with physiological saline (vehicle) or the PAI-1 inhibitor for one week. Thereafter, the tumors were collected, and the M2 macrophages were stained with an anti-CD45 antibody, an anti-CD11b antibody, an anti-F4/80 antibody, and an anti-CD206 antibody, and the percentage of M2 macrophages in the tumor mass was analyzed with a flow cytometer.

[5] = tested on: mouse malignant melanoma cell line (B16F10); experiment: PD-L1 expression level by flow cytometry in B16F10 cells (Experimental Example 3); format: cell-based; conditions: inhibitor 50 μM with rPAI-1 40 nM, 2 days, listed as PAI-1 inhibitor
Procedure: Next, the PD-L1 expression level was determined by flow cytometry in the same manner as in Experimental Example 1.
Likewise, a mouse colorectal cancer cell line (MC38) and a mouse malignant melanoma cell line (B16F10) were also tested in the same manner, instead of the mouse leukemia cell line (32Dp210).

[6] = tested on: cancer-associated fibroblasts (CAF); experiment: Cancer-associated fibroblasts in MC38 tumor sections (Experimental Example 15); format: in vivo, mice (C57BL6); conditions: oral administration for one week, vs vehicle
From the text: 1) The untreated group and 3) the single-administration group of PAI-1 inhibitor (cancer-bearing mice) of Experimental Example 11, after tumor engraftment, were orally administered with physiological saline (vehicle) or the PAI-1 inhibitor for one week. Thereafter, the tumor was collected, fixed with paraformaldehyde, and then embedded in paraffin to prepare tissue sections. The tissue sections were stained with an anti-SMAcα antibody, and the percentage of cancer-associated fibroblasts (CAF) was observed under a microscope.

For `O=C(Nc1ccc(Cl)cc1C(=O)[O-])c1cccc(-c2cccc3cccnc23)c1.[Na+]` [Example 68, 5-chloro-2-(((3-(quinolin-8-yl)phenyl)carbonyl)amino)sodium benzoate], the “percentage of regulatory T cells in the tumor” value [1] is listed as “reduced”, the “PD-L1 expression induction by rPAI-1” value [2] is listed as “completely inhibited the induction; also recorded: completely suppressed” and the “safety by oral administration” value [3] is listed as “no safety issues”. The “PD-L1 expression level in the tumor cells” value [4] was “reduced”, the “percentage of intratumoral infiltration of CD8+ T cells (effector T cells)” value (CD8+ T cells) was “increased” and the “number of macrophages in the tumor” value (M2 macrophages) was “reduced”. For the same molecule, the “percentage of M2 macrophages among macrophages” value (M2 macrophages) was “reduced”, the “PD-L1 expression induction by rPAI-1” value [5] was “completely inhibited the induction; also recorded: the same results as those of the leukemia cells” and the “percentage of intratumoral infiltration of cancer-associated fibroblasts” value [6] was “reduced”.
